In brackets after ≈: the same amount, converted by molar mass.

Series [1] in a line: Metabolic stability in hepatic S9 fraction, human. Type of series: in vitro ADME. Particulars: 2 μM. How it is done: (§1) Blood plasma and S9 stability was studied as described previously ([8]). In brief, the compounds were incubated at 2 μM in hamster, rat, dog, monkey, or human plasma samples for up to 4 h at 37°C. For S9 stability, the compounds were incubated at 2 μM in hamster, rat, dog, monkey, or human intestinal and hepatic S9 fractions for up to 90 min at 37°C in the presence of NADPH and uridine 5′-diphosphoglucuronic acid trisodium salt (UDPGA) (Sigma-Adrich). The samples were analyzed by liquid chromatography coupled to triple-quadrupole mass spectrometry (LC-MS/MS).
(§2) The data (analyte-to-internal standard peak area ratio) were plotted on a semilog scale and fitted using an exponential fit. The half-life (t1/2) was determined assuming first-order kinetics.

For a further series, the system named is HCV GT2a replicon. Kind of series: HCV GT2a replicon, transiently transfected Huh-1C cells. Type of series: cell-based, hepatitis C virus. Particulars: for EC50: Hepatitis C virus, GT2A, 72 h. Here is the method: (§3) GT1a, GT1b, and GT2a are authentic subgenomic replicons of the indicated strain. Creation of these HCV replicons was reported previously ([7]).
(§4) RNA was transcribed in vitro using a MEGAscript […] kit (Ambion, Austin, TX) and transfected into Huh-Lunet and −1C cells using published methods ([21], [22]).
(§5) The EC50s, defined as the concentration at which there was a measured 50% decrease in HCV replicon level, were determined in replicon assay as previously described ([24]). Briefly, replicon cells were seeded into 96-well plates. Compounds were serially diluted in DMSO at 200× final concentrations and then added to the assay plate. Luciferase expression was quantified after 3 days of incubation using a commercial luciferase assay (Promega, Madison, WI). Data were analyzed using GraphPad Prism 6.0 (La Jolla, CA).
(§6) X represents log of compound concentration and Y represents replicon replication as the percentage of DMSO control. EC50s were calculated as an average from at least three independent experiments.
In general terms: A replicon is a self-replicating genome or part of one, used to study replication in cells.

A short description of series [2]: Metabolic stability in hepatic S9 fraction, dog. Type of series: in vitro ADME. Particulars: 2 μM. How it is done:
as §1, §2

A further series concerns the target T1, CES1 (Homo sapiens, UniProt P23141).
T1 construct: purchased R&D Systems (Minneapolis, MN)
T1 sequence (P23141 18-567): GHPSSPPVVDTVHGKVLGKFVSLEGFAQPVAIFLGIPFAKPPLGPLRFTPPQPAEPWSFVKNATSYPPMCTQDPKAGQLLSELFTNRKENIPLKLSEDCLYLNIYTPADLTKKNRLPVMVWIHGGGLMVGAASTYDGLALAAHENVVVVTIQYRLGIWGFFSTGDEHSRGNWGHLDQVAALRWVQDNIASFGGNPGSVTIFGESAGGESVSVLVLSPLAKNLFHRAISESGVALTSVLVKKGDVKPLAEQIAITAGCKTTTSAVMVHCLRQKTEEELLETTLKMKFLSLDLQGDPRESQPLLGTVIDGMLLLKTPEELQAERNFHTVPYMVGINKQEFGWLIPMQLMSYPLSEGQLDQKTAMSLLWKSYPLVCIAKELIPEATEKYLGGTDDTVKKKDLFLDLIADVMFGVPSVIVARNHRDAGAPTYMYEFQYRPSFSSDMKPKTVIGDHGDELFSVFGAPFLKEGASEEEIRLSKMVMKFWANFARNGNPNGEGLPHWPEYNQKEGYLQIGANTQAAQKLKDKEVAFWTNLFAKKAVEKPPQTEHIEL
Kind of series: Ester cleavage by CES1. Type of series: biochemical. How it is done: Biochemical assays studying prodrug cleavage have been described previously ([8]). In brief, the cleavages of GS2 by CATA, CES1, CES2, and HINT1 were assessed in vitro. The reaction substrates and products were monitored over time by high-performance liquid chromatography (HPLC).

The subject of series [3] is HCV GT1b replicon. Kind of series: HCV GT1b replicon, stably transfected Huh-Lunet cells. Type of series: cell-based, hepatitis C virus. Particulars: for EC50: Hepatitis C virus, 72 h, stably transfected Huh-Lunet cells, 3 days. Here is the method:
Primary hepatocytes from humans, hamsters, dogs, and monkeys were purchased from BioreclamationIVT in 12-well plates seeded at confluence (0.88 × 10^6 cells/well). Huh-Lunet cells were obtained from ReBlikon GmbH (Mainz, Germany) ([19]). Huh-1C was derived from a GT1a replicon clone in which HCV replication was cured. All Huh-Lunet- and Huh-1C-based replicon cell lines were cultured in Dulbecco's modified Eagles' medium (DMEM) with GlutaMAX (Invitrogen, Carlsbad, CA) supplemented with 10% fetal bovine serum (FBS; HyClone, Logan, UT) and 100 U/ml penicillin (Invitrogen). Replicon cell lines containing genotype 1a (H77) and 2a (JFH1) were created as previously reported ([20][–][22]). Caco-2 cells were maintained in DMEM with sodium pyruvate, GlutaMAX supplemented with 1% penicillin-streptomycin, 1% nonessential amino acids, and 10% FBS in an incubator set at 37°C, 90% humidity, and 5% CO2.
as §3, §5, §6

Series [4] is described as follows: Caco-2 bidirectional permeability. Type of series: in vitro ADME. Particulars: human; for Papp A→B / Papp B→A / efflux ratio: at thermodynamic solubility limit in fed simulated intestinal fluid; for efflux ratio: read-out: Efflux ratio B→A/A→B. How it is done: Caco-2 cells between passage 43 and 71 were grown to confluence for ≥21 days on 12- or 24-well polyethylene terephthalate plates (BD Biosciences). The bidirectional permeability of compounds was tested as described previously ([8]). In brief, the donor well contained Hanks' balanced salt solution (HBSS), 10 mM HEPES (pH 6.5), and 15 mM glucose. The receiver well contained HBSS (pH 7.4) and 1% bovine serum albumin (BSA). The cells were dosed on the apical (A) or basolateral (B) side to determine forward (A to B) and reverse (B to A) permeability. Media from the donor and receiver wells were analyzed by LC-MS/MS.

The next series in a line: in vitro. Type of series: in vitro ADME. Particulars: 37°C, read-out: Plasma stability, half-life. Here is the method:
as §1, §2

Series [5] can be described thus: Metabolic stability in intestinal S9 fraction, monkey. Type of series: in vitro ADME. Particulars: monkey (cynomolgus). How it is done:
as §1, §2

Series [6] is described as follows: Metabolic stability in hepatic S9 fraction, rat. Type of series: in vitro ADME. Particulars: 2 μM. How it is done: as §1, §2
Series [7] is described as follows: Thermodynamic solubility (shaking flask, simulated intestinal fluid). Particulars: for solubility thermodynamic: fessif, thermodynamic from solid, crystalline free base GS-6620, amorphous GS2. Type of series: physicochemical. How it is done:
The samples were incubated at 37°C for 1 h, followed by centrifugation at 2,800 relative centrifugal force (RCF) for 30 min at room temperature. Thermodynamic solubility was determined with the crystalline-free base of GS-6620 or amorphous GS2 using the shaking flask method. The concentrations of the compounds in supernatants were determined by HPLC.

Series [8] in a line: Metabolic stability in intestinal S9 fraction, hamster. Type of series: in vitro ADME. Here is the method:
as §1, §2

Series [9] concerns HCV GT1b replicon. Kind of series: HCV GT1b replicon, transiently transfected Huh-1C cells. Type of series: cell-based, hepatitis C virus. Particulars: for EC50: Hepatitis C virus, GT1B, 72 h. How it is done:
as §3, §4, §5, §6

Where [10] appears, read: CES1, GS-6620-containing diastereomeric mixture was used.
Where [11] appears, read: fed-state simulated intestinal fluid.

As for `CC(C)OC(=O)C(C)(C)N[P@](=O)(OC[C@H]1O[C@@](C#N)(c2ccc3c(N)ncnn23)[C@](C)(O)[C@@H]1O)Oc1ccccc1` [GS2], the “Metabolic stability in hepatic S9 fraction, predicted hepatic extraction” value is 87% in series [1], 42% in series [2] and 86% in series [6]. The “Fold (GS2/GS-6620)” value in the series on HCV GT2a replicon (EC50 ratio, GT2a, Huh-1C) worked out at 2.3; in the series with HCV GT1b replicon [3] (EC50 ratio, Huh-Lunet), 7.2; in the series with HCV GT1b replicon [9] (EC50 ratio, GT1b, Huh-1C), 3.1. Further, the EC50 – broadly, the midpoint of the concentration-response curve – was found to be 61 ± 8 nM in the series with HCV GT2a replicon, 2200 nM with HCV GT1b replicon [3] and 110 ± 20 nM in the series with HCV GT1b replicon [9]. The “Amidate ester cleavage, specific activity” value on CES1 (setting [10]) stood at 91.0 pmol/min/µg. In addition, the “CES1 hydrolysis more efficient than GS-6620” value at CES1 (isopropyl ester cleavage) came to 48 fold. The apical-to-basolateral permeability (Papp A→B) (usually how fast a substance crosses the layer from the apical side) in [4] was 2.6 ×10⁻⁶ cm/s. Further, in series [4], the Papp B→A (commonly how fast a substance crosses the layer from the basolateral side) is 6.7 ×10⁻⁶ cm/s. Besides, the efflux ratio in [4] was 2.5. Further, the Papp A→B at 10 μM in series [4] (tested at 10 μM) was 0.4 ×10⁻⁶ cm/s. Besides, the Papp B→A at 10 μM in series [4] (tested at 10 μM) is 9.3 ×10⁻⁶ cm/s. Also, the half-life – broadly, the time needed for the level to fall by half in the phase considered – at 2 μM is more than 10 h in “in vitro” (dog plasma); more than 10 h in the series “in vitro” (hamster plasma); more than 10 h in “in vitro” (human plasma); more than 10 h in “in vitro” (monkey (cynomolgus) plasma); 0.0833 h in the series “in vitro” (rat plasma); 3.83 h in series [5]. Also, in series [8], the half-life at 2 μM came out at 1.12 h. In [7], the “difference in solubility between fed and fasted simulated intestinal fluid” value was “less than 30%”. Further, in series [7] (setting [11]), the “thermodynamic solubility higher than GS-6620” value is more than 30 fold. Besides, the solubility (thermodynamic) (usually solubility found after equilibrating the solid with the medium) in [7] (setting [11]) is 430 µM (≈ 253 µg/mL).
Take `CC(C)OC(=O)[C@H](C)N[P@](=O)(OC[C@H]1O[C@@](C#N)(c2ccc3c(N)ncnn23)[C@](C)(O)[C@@H]1OC(=O)C(C)C)Oc1ccccc1` [GS-6620, reference compound]: the “Metabolic stability in hepatic S9 fraction, predicted hepatic extraction” value in series [1] was 93%; in [2], 73%; in [6], 97%. Moreover, the EC50 with HCV GT2a replicon was 27 ± 10 nM; in the series with HCV GT1b replicon [3], 300 ± 140 nM; in the series on HCV GT1b replicon [9], 35 ± 15 nM. In addition, the “3′-Ester cleavage, specific activity” value at CES1 (setting [10]) amounted to 1.6 pmol/min/µg. Further, the “Amidate ester cleavage, specific activity” value at CES1 (setting [10]) turned out to be 1.9 pmol/min/µg. For the same molecule, in [4], the Papp A→B was 1.8 ×10⁻⁶ cm/s. The molecule further yielded a Papp B→A in series [4] of 11 ×10⁻⁶ cm/s. In addition, in series [4], the efflux ratio was 5.8. Also, the half-life at 2 μM in the series “in vitro” (dog plasma) was 7.17 h; in “in vitro” (hamster plasma), 2 h; in the series “in vitro” (human plasma), 6.17 h; in the series “in vitro” (monkey (cynomolgus) plasma) it was 1.33 h; in “in vitro” (rat plasma), less than 0.0333 h; in series [5], 0.0933 h. In series [8], this molecule displayed a half-life at 2 μM of less than 0.0333 h. Further, the solubility (thermodynamic) in series [7] (setting [11]) is 7.8 µM (≈ 5.03 µg/mL).
